Reference: ChEMBL document CHEMBL1201862, “PubChem BioAssay data set” (2004)
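Values below derive from 48-hour exposures of cells grown in 96-well plates, with endpoints linearly interpolated between the two concentrations bracketing the appropriate inhibition level. Here, GI50 denotes the concentration required for 50% inhibition of growth.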 Calls of active or inactive are those of the source. No stated cut-off is given here; in the data, active = GI50 up to about 1.1 µM and inactive = higher.

Assays:
Experiment in all cases: growth of human tumour cells (NCI), 48 h
[1] = tested on: SK-MEL-5
[2] = tested on: COLO 205
[3] = tested on: NCI/ADR-RES
[4] = tested on: NCI-H460
[5] = tested on: KM12
[6] = tested on: U-251
[7] = tested on: SNB-19
[8] = tested on: CAKI-1
[9] = tested on: SN12C
[10] = tested on: NCI-H23
[11] = tested on: SF-539
[12] = tested on: MDA-N
[13] = tested on: HOP-62
[14] = tested on: T47D
[15] = tested on: A498
[16] = tested on: SR
[17] = tested on: SK-MEL-2
[18] = tested on: LOX IMVI
[19] = tested on: SNB-75
[20] = tested on: IGROV-1

Structure (SMILES)	GI50 [1]	GI50 [2]	GI50 [3]	GI50 [4]	GI50 [5]	GI50 [6]	GI50 [7]	GI50 [8]	GI50 [9]	GI50 [10]	GI50 [11]	GI50 [12]	GI50 [13]	GI50 [14]	GI50 [15]	GI50 [16]	GI50 [17]	GI50 [18]	GI50 [19]	GI50 [20]
CNC(=O)CCNC(=O)CCC(=O)N(C)C	> 100 µM (inactive)	> 100 µM (inactive)	> 100 µM (inactive)	> 100 µM (inactive)	> 100 µM (inactive)	> 100 µM (inactive)	> 100 µM (inactive)	> 100 µM (inactive)	> 100 µM (inactive)	> 100 µM (inactive)	> 100 µM (inactive)	> 100 µM (inactive)	> 100 µM (inactive)	> 100 µM (inactive)	> 100 µM (inactive)	0.951 µM (active)	> 100 µM (inactive)			
CCOC(=O)C(COS(C)(=O)=O)(COS(C)(=O)=O)C(=O)OCC	> 100 µM (inactive)	> 100 µM (inactive)	> 100 µM (inactive)	> 100 µM (inactive)	> 100 µM (inactive)	> 100 µM (inactive)	> 100 µM (inactive)		> 100 µM (inactive)	> 100 µM (inactive)		> 100 µM (inactive)		> 100 µM (inactive)	11.1 µM (inactive)	> 100 µM (inactive)		> 100 µM (inactive)	> 100 µM (inactive)	
O=C(/C=C/c1ccc2c(c1)OCO2)CC(=O)/C=C/c1ccc2c(c1)OCO2	> 100 µM (inactive)	> 100 µM (inactive)	69.3 µM (inactive)	82.8 µM (inactive)	3.56 µM (inactive)	91.4 µM (inactive)	92.7 µM (inactive)	> 100 µM (inactive)	> 100 µM (inactive)	19.6 µM (inactive)	76.7 µM (inactive)	40 µM (inactive)	> 100 µM (inactive)	> 100 µM (inactive)		39.1 µM (inactive)	> 100 µM (inactive)	12.1 µM (inactive)	> 100 µM (inactive)	23.5 µM (inactive)
S=C(N/N=C/c1ccccn1)N1CC2CCC(CC2)C1	< 0.01 µM (active)	< 0.01 µM (active)	< 0.01 µM (active)	< 0.01 µM (active)	< 0.01 µM (active)	< 0.01 µM (active)	0.161 µM (active)	< 0.01 µM (active)	< 0.0216 µM (active)	< 0.01 µM (active)	< 0.0229 µM (active)	0.0188 µM (active)	< 0.01 µM (active)	< 0.01 µM (active)	0.119 µM (active)		< 0.0471 µM (active)	< 0.01 µM (active)	0.2 µM (active)	< 0.01 µM (active)
CCCCn1cnnc1NS(=O)(=O)c1cc(C)c(Cl)cc1SCC(=O)O	> 10 µM (inactive)	> 10 µM (inactive)	> 10 µM (inactive)	> 10 µM (inactive)	> 10 µM (inactive)	> 10 µM (inactive)	> 10 µM (inactive)	> 10 µM (inactive)	> 10 µM (inactive)	> 10 µM (inactive)	> 10 µM (inactive)	> 10 µM (inactive)	> 10 µM (inactive)	> 10 µM (inactive)	> 10 µM (inactive)		> 10 µM (inactive)	> 10 µM (inactive)	> 10 µM (inactive)	> 10 µM (inactive)
CCN(CC)Cc1ccc(C(=S)Nc2ccc(Cl)cc2)s1	4.24 µM (inactive)	1.99 µM (inactive)	7.45 µM (inactive)	11.9 µM (inactive)	11.9 µM (inactive)	12 µM (inactive)	16.5 µM (inactive)	12.7 µM (inactive)		2.34 µM (inactive)	13.9 µM (inactive)	10.7 µM (inactive)	16.3 µM (inactive)	11.2 µM (inactive)	12 µM (inactive)	3.64 µM (inactive)	15.1 µM (inactive)	4.82 µM (inactive)		11.4 µM (inactive)
O=c1[nH]cnc2c1sc1nc3ccccc3n12	> 100 µM (inactive)	> 100 µM (inactive)	> 100 µM (inactive)		5.96 µM (inactive)	> 100 µM (inactive)	> 100 µM (inactive)	> 100 µM (inactive)		> 100 µM (inactive)	61.9 µM (inactive)	> 100 µM (inactive)	> 100 µM (inactive)	> 100 µM (inactive)	33.3 µM (inactive)		55.8 µM (inactive)	27.8 µM (inactive)	49.3 µM (inactive)	63.8 µM (inactive)
CNc1cc(Cl)ccc1C(=O)N1CCC[C@H]1CO	74.1 µM (inactive)	> 100 µM (inactive)	> 100 µM (inactive)		> 100 µM (inactive)	> 100 µM (inactive)	> 100 µM (inactive)	> 100 µM (inactive)	> 100 µM (inactive)	> 100 µM (inactive)	> 100 µM (inactive)	97.1 µM (inactive)	> 100 µM (inactive)	> 100 µM (inactive)	> 100 µM (inactive)		> 100 µM (inactive)	> 100 µM (inactive)	53.5 µM (inactive)	> 100 µM (inactive)
COc1ccc2c(c1)[n+]([O-])c(C#N)c(N1CCN(c3ccc([N+](=O)[O-])cc3)CC1)[n+]2[O-]	3.59 µM (inactive)	2.24 µM (inactive)	2.45 µM (inactive)	3.63 µM (inactive)	6.87 µM (inactive)	2.41 µM (inactive)	5.22 µM (inactive)	6 µM (inactive)	6.37 µM (inactive)	3.23 µM (inactive)	2.21 µM (inactive)	7.35 µM (inactive)	4.24 µM (inactive)	2.01 µM (inactive)		0.41 µM (active)	> 57.4 µM (inactive)	2.36 µM (inactive)	8.53 µM (inactive)	1.49 µM (inactive)
CC(=O)OCCN(C1=NCCN1)/[N+](C=c1ccc(=C=[N-])cc1)=C/c1ccc(C#N)cc1	> 100 µM (inactive)	> 100 µM (inactive)	94.6 µM (inactive)	> 100 µM (inactive)	> 100 µM (inactive)	> 100 µM (inactive)	> 100 µM (inactive)	> 100 µM (inactive)	> 100 µM (inactive)	> 100 µM (inactive)	> 100 µM (inactive)	> 100 µM (inactive)	> 100 µM (inactive)	> 100 µM (inactive)		> 100 µM (inactive)	> 100 µM (inactive)	> 100 µM (inactive)	> 100 µM (inactive)	> 100 µM (inactive)
COc1cc(/N=C(\N)N=C(N)N)c2ncccc2c1	39.9 µM (inactive)	74.8 µM (inactive)	> 100 µM (inactive)	> 100 µM (inactive)	45.3 µM (inactive)	38 µM (inactive)	50.4 µM (inactive)	> 100 µM (inactive)	62.1 µM (inactive)	80.7 µM (inactive)	46.8 µM (inactive)	> 100 µM (inactive)	> 100 µM (inactive)	29.9 µM (inactive)	> 100 µM (inactive)		> 100 µM (inactive)	> 100 µM (inactive)	60.4 µM (inactive)	> 100 µM (inactive)
NNC1=N/C(=C\c2ccccc2O)C(=O)N1	35 µM (inactive)	29.6 µM (inactive)	35.8 µM (inactive)	20.2 µM (inactive)	35.5 µM (inactive)	33.3 µM (inactive)	73.3 µM (inactive)	60.3 µM (inactive)	40.7 µM (inactive)	53.6 µM (inactive)	25.4 µM (inactive)	42.2 µM (inactive)	48.5 µM (inactive)	38.5 µM (inactive)	> 100 µM (inactive)		63.8 µM (inactive)	24.5 µM (inactive)	> 100 µM (inactive)	36.2 µM (inactive)
Cc1n[nH]c(=O)n1-c1cccnc1	> 100 µM (inactive)	> 100 µM (inactive)	> 100 µM (inactive)	> 100 µM (inactive)	> 100 µM (inactive)	> 100 µM (inactive)	> 100 µM (inactive)	> 100 µM (inactive)	> 100 µM (inactive)	> 100 µM (inactive)	> 100 µM (inactive)	> 100 µM (inactive)	> 100 µM (inactive)	> 100 µM (inactive)	> 100 µM (inactive)	> 100 µM (inactive)		> 100 µM (inactive)	> 100 µM (inactive)	> 100 µM (inactive)
O=C(CCc1ccc(O)cc1)NCCc1cccc(OCc2ccccc2)c1	17.4 µM (inactive)	49.4 µM (inactive)	28.1 µM (inactive)	22.8 µM (inactive)	25.4 µM (inactive)	22.7 µM (inactive)	69 µM (inactive)	48 µM (inactive)	75.3 µM (inactive)	24.4 µM (inactive)	16.5 µM (inactive)	25.1 µM (inactive)	29.6 µM (inactive)	21.7 µM (inactive)	55.8 µM (inactive)	15.4 µM (inactive)	17.3 µM (inactive)	15.6 µM (inactive)		28.5 µM (inactive)
Cc1c2c(n(CCc3ccc(Cl)cc3)c1C)NN=C(C#N)S2(=O)=O	> 100 µM (inactive)	> 100 µM (inactive)	61.9 µM (inactive)	> 100 µM (inactive)	> 100 µM (inactive)	> 100 µM (inactive)	> 100 µM (inactive)		> 100 µM (inactive)	> 100 µM (inactive)	> 100 µM (inactive)	64.7 µM (inactive)	> 100 µM (inactive)	> 100 µM (inactive)		61.9 µM (inactive)	> 100 µM (inactive)	> 100 µM (inactive)	> 100 µM (inactive)	> 100 µM (inactive)
